This note sets out measurements from BindingDB's records for patent US20240239813 (Risen (Suzhou) Pharma Tech Co., 2024).

GTPase KRas [G12D], sequence (P01116 whole entry G12D): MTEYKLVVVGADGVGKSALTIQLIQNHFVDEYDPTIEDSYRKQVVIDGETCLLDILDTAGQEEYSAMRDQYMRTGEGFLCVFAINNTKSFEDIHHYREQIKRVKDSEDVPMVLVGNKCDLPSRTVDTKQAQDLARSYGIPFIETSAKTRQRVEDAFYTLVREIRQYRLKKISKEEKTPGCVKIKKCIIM

This assay concerns the target GTPase KRas [G12D] (Homo sapiens, UniProt P01116, G12D). Briefly: KRAS Binding Assay. How it is done: The ability of a test compound to bind to KRASG12D was measured by using an HTRF KRASG12D GTP Binding Kit (Cisbio, 63ADK000CB27PEG). […] 5 μL of compound solution was added to each well after serial dilution, followed by addition of 5 μL of GDP (50 nM) solution. After 30 minutes incubation at room temperature, 1×6His Eu cryptate antibody solution and GTP-Red tracer were added to the plate, then incubated for another 30 minutes. The HTRF signal was measured with a VICTOR Nivo multimode plate reader according to the manufacturer's instructions.
For orientation: IC50 means the concentration needed to halve the response being measured. `Oc1cc(-c2ncc3c(N4CCCC5(CCO5)C4)nc(OC[C@@]45CCCN4C[C@H](F)C5)nc3c2F)c2ccccc2c1` (some centres undefined) [US20240239813, Compound 8a] showed an IC50 above 1000 nM.
Compound `CCc1c(F)ccc2cc(O)cc(-c3ncc4c(N5[C@@H]6CC[C@H]5C[C@@H](O)C6)nc(OC[C@@]56CCCN5C[C@H](F)C6)nc4c3F)c12` [US20240239813, Compound 10] returned an IC50 of 881 nM.
With `CCc1c(F)ccc2cc(O)cc(-c3ncc4c(N5[C@@H]6CC[C@H]5C[C@H](O)C6)nc(OC[C@@]56CCCN5C[C@H](F)C6)nc4c3F)c12` [US20240239813, Compound 11], the IC50 was above 1000 nM.
`CN(C)CC1(COc2nc(N3CCC[C@]4(CCO4)C3)c3cnc(-c4cc(N)ccc4-c4cccs4)c(F)c3n2)CC1` [US20240239813, Compound 17a] yielded an IC50 above 1000 nM.
`CCc1c(F)ccc2cc(OC(=O)C(C)C)cc(-c3ncc4c(N5CCC[C@]6(CCO6)C5)nc(OCC5(CN(C)C)CC5)nc4c3F)c12` [US20240239813, Compound 22a] registered an IC50 above 1000 nM.
`CCc1c(F)ccc2cc(OC(=O)N(C)C)cc(-c3ncc4c(N5CCC[C@]6(CCO6)C5)nc(OCC5(CN(C)C)CC5)nc4c3F)c12` [US20240239813, Compound 24a] returned an IC50 above 1000 nM.
The compound `CCc1c(F)ccc2cc(O)cc(-c3ncc4c(N5CCC(O)(CO)CC5)nc(OC[C@@]56CCCN5C[C@H](F)C6)nc4c3F)c12` [US20240239813, Compound 41] registered an IC50 above 1000 nM.
The compound `CCc1c(F)ccc2cc(O)cc(-c3ncc4c(N5C[C@H](O)[C@@H](O)[C@H](O)[C@H]5CO)nc(OC[C@@]56CCCN5C[C@H](F)C6)nc4c3F)c12` [US20240239813, Compound 51] showed an IC50 above 1000 nM.
On to `Cc1ccc2[nH]ncc2c1-c1ncc2c(N3CCCC4(CCO4)C3)nc(OC[C@@]34CCCN3C[C@H](F)C4)nc2c1F` (some centres undefined) [US20240239813, Compound 71], for which the IC50 was above 1000 nM.
